What was measured:
[1] = Antivascular activity against human EAhy926 cells assessed as rounding up morphology after 2 hrs by microscopic analysis; assay type: functional; conditions: EA.hy 926, 2 h, read-out: MEC
[2] = target: Tubulin; assay: Inhibition of tubulin (unknown origin) assessed as inhibition of GTP-induced polymerization incubated for 45 mins prior to GTP-addition measured after 2 hrs by DAPI-staining based fluorimetric analysis; assay type: protein-complex assay, Homo sapiens
[3] = tested on: B16; assay: Cytotoxicity against mouse B16 cells after 48 hrs by MTT assay; assay type: functional, cell-based; conditions: B16, 48 h

| Compound | IC50 [2] | minimal effective concentration [1] | IC50 [3] |
| --- | --- | --- | --- |
| COc1ccc(C2CC2c2cc(OC)c(OC)c(OC)c2)cc1N (racemic) | 2800 nM | 0.12 µM | 290 nM |
| COc1ccc([C@H]2C[C@H]2c2cc(OC)c(OC)c(OC)c2)cc1O | 6800 nM | 0.5 µM | 520 nM |
| COc1ccc(C2CC2c2cc(OC)c(OC)c(OC)c2)cc1[N+](=O)[O-] (racemic) | 26300 nM | 3.13 µM | 15400 nM |
| COc1ccc(/C=C\c2cc(OC)c(OC)c(OC)c2)cc1O [COMBRETASTATIN A4] | – | 0.006 µM | 3 nM |

Further lines, with some results ahead:

| IC50 [2] | Compound | minimal effective concentration [1] | IC50 [3] |
| --- | --- | --- | --- |
| 1800 nM | COc1cc(C2CC2/C=C/c2ccccc2)cc(OC)c1OC (racemic) | 0.5 µM | 620 nM |
| 1300 nM | COc1cc([C@@H]2C[C@@H]2/C=C/c2ccccc2)cc(OC)c1OC | 0.5 µM | 570 nM |
| 4500 nM | COc1cc([C@H]2C[C@H]2/C=C/c2ccccc2)cc(OC)c1OC | 3.13 µM | 2740 nM |
| 1000 nM | COc1ccc(C2CC2c2cc(OC)c(OC)c(OC)c2)cc1O (racemic) | 0.12 µM | 320 nM |
| 300 nM | COc1ccc([C@@H]2C[C@@H]2c2cc(OC)c(OC)c(OC)c2)cc1O | 0.12 µM | 300 nM |

— ChEMBL document CHEMBL2321649 (Bioorg Med Chem, 2013)
